These results are taken from patent publication US20140105879A1, “FLOUR-BASED FUNCTIONAL FOOD” (priority 2011, published 2014).

This test relates to HMG-CoA reductase. In words: action on the enzyme HMG-CoA reductase (further experimental data). An excerpt:
Therefore, the functional bread to which vegetable extracts have been added according to the present invention is capable of exerting a functional, salutary action in prevention and treatment of cholesterol and triglyceride levels exceeding the reference values, in addition to an action of protecting the arteries and the cardio-circulatory system and a hepatoprotective and antioxidant action, thanks to the synergistic biochemical actions of the phytocomplexes included in the bread, which enable an enhanced bioactivity thereof to be obtained in the resulting product.

On to `CCCCCCCCCCCCCCCCCCCCCCCCCCCCO` [octacosanol], for which the “action on the enzyme HMG-CoA reductase” value was “reducing the quantity thereof”.
